# Patent US12516095B2, “Peptide hormone analogues” (IP2IPO INNOVATIONS LIMITED, priority 2019, dated 2026)
# Starred links: 1 amine or outer side, 2 acyl side, 3 side chain; linkers in the order of their positions; H or OH if unused. Non-standard residues stand in square brackets, D forms with d. Residues, ends and D or L forms follow the SMILES beside them. Groups on a side chain read outwards from the residue. *: point of attachment. C20 diacid = O=C(O)CCCCCCCCCCCCCCCCCCC(=O)*; γGlu = O=C(O)[C@H](CCC(=O)[*:2])N[*:1]; Aib = CC(C)(N)C(=O)O
# Test: PK measurements for half life assessment in pigs
# Format: in vivo, pig
# Conditions: male, large white, pig, plasma, sc, single subcutaneous injection, time from tmax to half of Cmax, typically mean of four animals
# Method in brief: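 Male large white pigs dosed once subcutaneously at 0 h; plasma sampled over 168 h and quantified by radioimmunoassay or mass spectrometry. t½ taken as time from tmax to half Cmax, typically the mean of four animals.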
row,SMILES,half-life [h]
1,CC[C@H](C)[C@H](NC(=O)[C@H](Cc1ccccc1)NC(=O)[C@H](CCC(=O)O)NC(=O)[C@H](Cc1c[nH]cn1)NC(=O)[C@H](C)NC(=O)[C@H](CCCNC(=N)N)NC(=O)[C@H](CCCCN)NC(=O)[C@H](C)NC(=O)[C@H](CC(=O)O)NC(=O)[C@H](CC(C)C)NC(=O)[C@H](Cc1ccc(O)cc1)NC(=O)[C@H](CCCCN)NC(=O)[C@H](CO)NC(=O)[C@H](Cc1ccc(O)cc1)NC(=O)[C@H](CC(=O)O)NC(=O)[C@H](CO)NC(=O)[C@@H](NC(=O)[C@H](Cc1ccccc1)NC(=O)[C@@H](NC(=O)CNC(=O)[C@H](Cc1c[nH]cn1)NC(=O)C(C)(C)NC(=O)[C@@H](N)Cc1c[nH]cn1)[C@@H](C)O)[C@@H](C)O)C(=O)N[C@@H](CCC(=O)O)C(=O)N[C@@H](Cc1c[nH]c2ccccc12)C(=O)N[C@@H](CC(C)C)C(=O)N[C@@H](CC(C)C)C(=O)N[C@@H](CCC(N)=O)C(=O)N[C@@H](CO)C(=O)N[C@@H](Cc1c[nH]cn1)C(=O)N[C@@H](CCC(N)=O)C(=O)N[C@@H](CCC(N)=O)C(=O)N[C@@H](Cc1c[nH]cn1)C(=O)N[C@@H](CCC(=O)O)C(=O)N[C@@H](CO)C(=O)N1CCC[C@H]1C(=O)N1CCC[C@H]1C(=O)N1CCC[C@H]1C(=O)NCC(=O)N[C@@H](CCCCNC(=O)[C@H](CC(N)=O)NC(=O)CC[C@H](NC(=O)CCCCCCCCCCCCCCCCCCC(=O)O)C(=O)O)C(=O)O [Example 652] (H-H[Aib]HGTFTSDYSKYLDAKRAHEFIEWLLQSHQQHESPPPGK([Asn-γGlu-C20 diacid])-OH),116
2,CC[C@H](C)[C@H](NC(=O)[C@H](Cc1ccccc1)NC(=O)[C@H](CCC(=O)O)NC(=O)[C@H](CCC(N)=O)NC(=O)[C@H](C)NC(=O)[C@H](CCCNC(=N)N)NC(=O)[C@H](CCCCN)NC(=O)[C@H](C)NC(=O)[C@H](CC(=O)O)NC(=O)[C@H](CC(C)C)NC(=O)[C@H](Cc1ccc(O)cc1)NC(=O)[C@H](CCCCN)NC(=O)[C@H](CO)NC(=O)[C@H](Cc1ccc(O)cc1)NC(=O)[C@H](CC(=O)O)NC(=O)[C@H](CO)NC(=O)[C@@H](NC(=O)[C@H](Cc1ccccc1)NC(=O)[C@@H](NC(=O)CNC(=O)[C@H](Cc1c[nH]cn1)NC(=O)C(C)(C)NC(=O)[C@@H](N)Cc1c[nH]cn1)[C@@H](C)O)[C@@H](C)O)C(=O)N[C@@H](CCC(=O)O)C(=O)N[C@@H](Cc1c[nH]c2ccccc12)C(=O)N[C@@H](CC(C)C)C(=O)N[C@@H](CC(C)C)C(=O)N[C@@H](CCC(N)=O)C(=O)N[C@@H](CO)C(=O)N[C@@H](Cc1c[nH]cn1)C(=O)N[C@@H](CCC(N)=O)C(=O)N[C@@H](Cc1c[nH]cn1)C(=O)N1CCC[C@H]1C(=O)N[C@@H](CO)C(=O)N1CCC[C@H]1C(=O)N1CCC[C@H]1C(=O)N1CCC[C@H]1C(=O)N[C@@H](CCCCNC(=O)CC[C@H](NC(=O)CCCCCCCCCCCCCCCCCCC(=O)O)C(=O)O)C(=O)O [Example 544] (H-H[Aib]HGTFTSDYSKYLDAKRAQEFIEWLLQSHQHPSPPPK([γGlu-C20 diacid])-OH),83
